For orientation: IC50 means the concentration that gives 50% inhibition.

In patent US6908942B2, “6-amino-2,2-dimethyl-3,4,6-trisubstituted benzopyran derivatives and their construction by parallel synthesis on solid-phase” (Korea Research Institute of Chemical Technology, priority 2002, dated 2005) one finds IC50 data, which are given here for 64 molecules.

This test has as its system lipid peroxidation induced by iron. Nature of the test: Inhibitory effect on iron-induced lipid peroxidation in rat brain homogenate (MDA measurement, N-methyl-2-phenylindole, Bioxytech LPO-586 Kit). It counts as biochemical. To be noted: FeCl2 400 μM, 30 min at 37° C., decrease of MDA vs DMSO control, absorption at 586 nm. The protocol: The inhibitory effect of the present compounds on lipid peroxidation induced by iron was evaluated as follows:
Rat brain was homogenized in Krebs buffer (15 mM HEPES, 10 mM glucose, 140 mM NaCl, 3.6 mM KCl, 1.5 mM CaCl2, 1.4 mM KH2PO4 and 0.7 mM MgCl, pH 7.4) and centrifuged at 12,000 rpm to obtain the supernatant serving as a raw material of lipid. To the brain homogenates, FeCl^2 was added to give a final concentration of 400 μM and allowed to stand for 30 min at 37° C. for promoting oxidation. Each of the compounds to be tested was added to give a concentration of 12.5 μM and a control group was solely added with dimethylsulfoxide (DMSO).
When iron is added to brain homogenates, oxidation is promoted to increase the amount of malondialdehyde (MDA) as lipid peroxidation product. Therefore, in this Example, the level of lipid peroxidation was evaluated according to MDA measurement method. In general MDA measurement, the test sample is reacted with TBA (2-thiobarbituric acid) and the absorbance at 530 nm was measured. However, since such process includes a boiling step, it is unsuitable for dealing with test samples in large quantity. Therefore, in this Example, N-methyl-2-phenylindole was used as a color developing reagent in place of TBA so as to avoid boiling step. […] The inhibitory effect on lipid peroxidation of test compounds was evaluated by calculating the decreased level of MDA in percentage based on the amount of MDA in the control group. For the test compounds showing more than 80% inhibitory effect, the concentration-lipid peroxidation inhibition curves were plotted with reference to the decrease rate of MDA amount based on the amount of MDA in the control group and their IC50 values was calculated through least linear regression analysis.
In addition, the representative antioxidants commercialized such as Promethazine, Trolox, Probucol and N-propyl gallate were examined in terms of 50% inhibition concentration (IC50) according to the above procedure and the results are shown in Table 4.

The structures appear in SMILES notation.

In turn, `CCCCOC1c2cc(NC)ccc2OC(C)(C)C1OCc1cccc(F)c1` (stereo not shown) [Compound 5-52] showed a concentration for half-maximal inhibition (IC50) of 0.98 µM. This lies in the sub-micromolar range.

With `Cc1ccccc1COC1C(OC(C)C)c2cc(NCc3ccc(F)cc3)ccc2OC1(C)C` (stereo not shown) [Compound 5-485], the IC50 worked out at 2.66 µM.

`CCCCOC1c2cc(NC)ccc2OC(C)(C)C1OCc1ccc(F)cc1` (stereo not shown) [Compound 5-50]: half-maximal inhibition (IC50) required 4.9 µM. Against the preceding molecule, the IC50 is about 1.8-fold higher.

Turning to `CC1(C)Oc2ccc(NCc3ccc(F)cc3)cc2C(OCc2ccccc2)C1OC(=O)c1cccs1` (stereo not shown) [Compound 5-1809], the half-inhibitory concentration (IC50) was 6.36 µM.

Turning to `CC1(C)Oc2ccc(NCc3ccc(F)cc3)cc2C(OCc2ccccc2)C1OC(=O)c1ccco1` (stereo not shown) [Compound 5-1840], the IC50 was found to be 1.03 µM. Against the preceding molecule, the IC50 is about 6.2-fold lower.

Regarding `CC1(C)Oc2ccc(NCc3ccccc3)cc2C(OCc2ccccc2)C1OCc1cccc(F)c1` (stereo not shown) [Compound 5-292], half-maximal inhibition (IC50) required 3.25 µM.

In turn, `CNc1ccc2c(c1)C(OC)C(OC(=O)CC(C)(C)C)C(C)(C)O2` (stereo not shown) [Compound 5-1482] came in with an IC50 of 5.27 µM.

With `COC1C(OCc2ccccc2)c2cc(NCc3ccccc3)ccc2OC1(C)C` (stereo not shown) [Compound 5-300], the IC50 was determined as 1.36 µM. This IC50 is about 3.9-fold lower than that of the molecule before.

The molecule `CCCCOC1c2cc(NC)ccc2OC(C)(C)C1OCc1ccc(C(C)(C)C)cc1` (stereo not shown) [Compound 5-51] displayed an IC50 of 5.2 µM.

Take `CCNc1ccc2c(c1)C(OC)C(OC(=O)c1ccco1)C(C)(C)O2` (stereo not shown) [Compound 5-1560]: the IC50 stood at 2.31 µM.

`COc1ccc(C(=O)OC2C(OC)c3cc(NCc4ccc(C)cc4)ccc3OC2(C)C)cc1` (stereo not shown) [Compound 5-1837]: the IC50 worked out at 4.25 µM. This IC50 is about 1.8-fold higher than that of the molecule before.

With `COC1c2cc(NCc3ccc(C)cc3)ccc2OC(C)(C)C1OC(=O)c1ccc(C)cc1` (stereo not shown) [Compound 5-1836], the midpoint of inhibition, the IC50, lay at 1.16 µM.

On to `CCCCOC1c2cc(NCc3ccc(F)cc3)ccc2OC(C)(C)C1OC(=O)c1cccs1` (stereo not shown) [Compound 5-1799], for which the IC50 turned out to be 6.01 µM.

`COC1c2cc(NCc3ccc(F)cc3)ccc2OC(C)(C)C1OC(=O)c1ccccc1` (stereo not shown) [Compound 5-1765] came in with a half-maximal inhibitory concentration (IC50) of 5.13 µM.

With `CCOC1c2cc(NC)ccc2OC(C)(C)C1OCc1cccc(F)c1` (stereo not shown) [Compound 5-68], the IC50 came to 1.39 µM.

In turn, `CNc1ccc2c(c1)C(OC)C(OC(=O)c1cccs1)C(C)(C)O2` (stereo not shown) [Compound 5-1489] registered a 50% inhibitory concentration (IC50) of 3.33 µM.

With `CC(C)(C)c1ccc(COC2C(OCCc3ccccc3)c3cc(NCc4ccccc4)ccc3OC2(C)C)cc1` (stereo not shown) [Compound 5-307], the IC50 stood at 3.55 µM.

For the molecule `CC1(C)Oc2ccc(NCc3ccc(F)cc3)cc2C(OCc2ccccc2)C1OCc1ccc(F)cc1` (stereo not shown) [Compound 5-514], half-maximal inhibition (IC50) required 2.39 µM.

With `CCNc1ccc2c(c1)C(OC)C(OC(=O)c1ccc(F)cc1)C(C)(C)O2` (stereo not shown) [Compound 5-1558], half-maximal inhibition (IC50) required 3.37 µM.

Molecule `CC(CN1c2ccccc2Sc2ccccc21)N(C)C` (stereo not shown) [Promethazine, reference compound] yielded a 50% inhibitory concentration (IC50) of 10.2 µM.

For `CCOC1c2cc(NCc3ccc(F)cc3)ccc2OC(C)(C)C1OCc1ccc(Br)cc1F` (stereo not shown) [Compound 5-473], the midpoint of inhibition, the IC50, lay at 2.72 µM.

`C=CCOC1C(OCCCC)c2cc(NCc3ccc(F)cc3)ccc2OC1(C)C` (stereo not shown) [Compound 5-511] yielded an IC50 of 0.12 µM. This IC50 is about 23-fold lower than that of the molecule before.

With `CCOC1c2cc(NCc3ccc(F)cc3)ccc2OC(C)(C)C1OCc1ccc(C)cc1` (stereo not shown) [Compound 5-472], the IC50 worked out at 3.9 µM.

Regarding `CC(C)OC1c2cc(NCc3ccc(F)cc3)ccc2OC(C)(C)C1OCc1ccc2ccccc2c1` (stereo not shown) [Compound 5-490], inhibition was half-maximal at 2.24 µM (IC50).

The molecule `CCCOC(=O)c1cc(O)c(O)c(O)c1` [N-propyl gallate, reference compound] came in with an IC50 of 25 µM.

`C#CCOC1C(OC)c2cc(NCc3ccc(F)cc3)ccc2OC1(C)C` (stereo not shown) [Compound 5-464]: inhibition was half-maximal at 3.81 µM (IC50).

Molecule `CNc1ccc2c(c1)C(OCc1ccccc1)C(OCc1ccccc1Cl)C(C)(C)O2` (stereo not shown) [Compound 5-70] registered an IC50 of 1.15 µM.

`C=CCOC1C(OCCCC)c2cc(NC)ccc2OC1(C)C` (stereo not shown) [Compound 5-63] returned an IC50 of 2.46 µM.

Turning to `COC1c2cc(NCc3ccc(C)cc3)ccc2OC(C)(C)C1OCc1ccccc1Cl` (stereo not shown) [Compound 5-566], half-maximal inhibition (IC50) required 5.73 µM.

In turn, `C/C=C/COC1C(OCCc2ccccc2)c2cc(NCc3ccccc3)ccc2OC1(C)C` (stereo not shown) [Compound 5-318] came in with an IC50 of 5.27 µM.

Molecule `COC1c2cc(NCc3ccc(C)cc3)ccc2OC(C)(C)C1OC(=O)CC(C)(C)C` (stereo not shown) [Compound 5-1832] displayed an IC50 of 1.09 µM.

As for `CNc1ccc2c(c1)C(OCc1ccccc1)C(OCc1ccc(C(C)(C)C)cc1)C(C)(C)O2` (stereo not shown) [Compound 5-67], the IC50 came out at 6.06 µM.

As to `COC1c2cc(NCc3ccc(F)cc3)ccc2OC(C)(C)C1OC(=O)CC(C)(C)C` (stereo not shown) [Compound 5-1762], inhibition was half-maximal at 1.8 µM (IC50).

In turn, `CCCCOC1c2cc(NCc3ccc(F)cc3)ccc2OC(C)(C)C1OC(=O)c1ccco1` (stereo not shown) [Compound 5-1800] came in with a half-maximal inhibitory concentration (IC50) of 3.9 µM.

The molecule `CCOC1c2cc(NCc3ccc(F)cc3)ccc2OC(C)(C)C1OCc1ccc2ccccc2c1` (stereo not shown) [Compound 5-474] returned an IC50 of 3.45 µM.

In turn, `CNc1ccc2c(c1)C(OCc1ccccc1)C(OCc1ccc(C)cc1)C(C)(C)O2` (stereo not shown) [Compound 5-72] yielded a concentration for half-maximal inhibition (IC50) of 7.39 µM.

For the molecule `CCOC1c2cc(NCc3ccc(F)cc3)ccc2OC(C)(C)C1OCc1cccc(F)c1` (stereo not shown) [Compound 5-468], the IC50 was 4.27 µM.

On to `CNc1ccc2c(c1)C(OCCC1CCCCC1)C(OCc1ccccc1C)C(C)(C)O2` (stereo not shown) [Compound 5-101], for which the IC50 was 6.03 µM.

`CCCCOC1c2cc(NC)ccc2OC(C)(C)C1OCc1ccc(Br)cc1F` (stereo not shown) [Compound 5-57] came in with an IC50 of 4.37 µM.

On to `CC1(C)Oc2ccc(NCc3ccccc3)cc2C(OCCc2ccccc2)C1OCc1ccc(Br)cc1F` (stereo not shown) [Compound 5-313], for which the IC50 was 1.44 µM.

`CNc1ccc2c(c1)C(OCCC1CCCCC1)C(OCc1ccc3ccccc3c1)C(C)(C)O2` (stereo not shown) [Compound 5-106] had an IC50 of 5.51 µM.

Molecule `CNc1ccc2c(c1)C(OC)C(OC(=O)C1CCCCC1)C(C)(C)O2` (stereo not shown) [Compound 5-1483] displayed an IC50 of 2.39 µM.

The molecule `CCNc1ccc2c(c1)C(OCC)C(OC(=O)c1ccc(F)cc1)C(C)(C)O2` (stereo not shown) [Compound 5-1568] returned an IC50 of 4.09 µM.

For the molecule `CCCCCOC1C(OCC)c2cc(NCc3ccc(F)cc3)ccc2OC1(C)C` (stereo not shown) [Compound 5-477], the IC50 stood at 3.63 µM.

`COc1ccc(C(=O)OC2C(OC)c3cc(NCc4ccc(F)cc4)ccc3OC2(C)C)cc1` (stereo not shown) [Compound 5-1767] yielded an IC50 of 2.63 µM.

Consider `COC1c2cc(NCc3ccc(C)cc3)ccc2OC(C)(C)C1OCc1ccc(F)cc1` (stereo not shown) [Compound 5-562], for which the IC50 is 6.47 µM. Against the preceding molecule, the IC50 is about 2.5-fold higher.

For the molecule `COC1c2cc(NCc3ccc(C)cc3)ccc2OC(C)(C)C1OC(=O)c1ccc(F)cc1` (stereo not shown) [Compound 5-1838], 1.31 µM corresponded to half-maximal inhibition (IC50).

`CC1(C)Oc2ccc(NCc3ccccc3)cc2C(OCc2ccccc2)C1OCc1ccc2ccccc2c1` (stereo not shown) [Compound 5-298] had an IC50 of 6.07 µM.

For `CNc1ccc2c(c1)C(OCc1ccccc1)C(OCc1ccc(Br)cc1F)C(C)(C)O2` (stereo not shown) [Compound 5-73], the concentration for half-maximal inhibition (IC50) was found to be 2.85 µM. This IC50 is about 2.1-fold lower than that of the molecule before.

In turn, `CC(C)(C)CC(=O)OC1C(OCc2ccccc2)c2cc(NCc3ccc(F)cc3)ccc2OC1(C)C` (stereo not shown) [Compound 5-1802] showed an IC50 of 4.12 µM.

In turn, `CCOC1c2cc(NCc3ccc(F)cc3)ccc2OC(C)(C)C1OCc1cccc(Cl)c1` (stereo not shown) [Compound 5-471] had an IC50 of 4.85 µM.

As to `CC1(C)Oc2ccc(NCc3ccccc3)cc2C(OCCc2ccccc2)C1OCc1ccc(F)cc1` (stereo not shown) [Compound 5-306], the IC50 was determined as 4.12 µM.

In the case of `CCCCOC1c2cc(NC)ccc2OC(C)(C)C1OC(=O)c1ccccc1` (stereo not shown) [Compound 5-1515], the IC50 was determined as 2.23 µM. This IC50 lies about 1.8-fold lower than the previous one.

With `CCNc1ccc2c(c1)C(OCC)C(OC(C)=O)C(C)(C)O2` (stereo not shown) [Compound 5-1561], the IC50 is 2.89 µM.

Consider `COC1c2cc(NCc3ccc(C)cc3)ccc2OC(C)(C)C1OC(C)=O` (stereo not shown) [Compound 5-1831], for which it took 2.71 µM to reach half-maximal inhibition (IC50).

As for `CCCCOC1c2cc(NC)ccc2OC(C)(C)C1OCc1cccc(Cl)c1` (stereo not shown) [Compound 5-55], half-maximal inhibition (IC50) required 2.61 µM.

With `CCOC1c2cc(NCc3ccc(F)cc3)ccc2OC(C)(C)C1OCc1ccccc1Cl` (stereo not shown) [Compound 5-470], the IC50 was found to be 4.15 µM. This IC50 lies about 1.6-fold higher than the previous one.

In turn, `CCNc1ccc2c(c1)C(OCC)C(OC(=O)c1ccco1)C(C)(C)O2` (stereo not shown) [Compound 5-1570] had a half-maximal inhibitory concentration (IC50) of 3.03 µM. This IC50 and that of the molecule before are within 1.5-fold of each other.

Molecule `C/C=C/COC1C(OCCCC)c2cc(NCc3ccc(F)cc3)ccc2OC1(C)C` (stereo not shown) [Compound 5-510] displayed an IC50 of 9.45 µM.

Molecule `COC1c2cc(NCc3ccc(C)cc3)ccc2OC(C)(C)C1OC(=O)c1ccccc1` (stereo not shown) [Compound 5-1835] displayed an IC50 of 1.14 µM. This IC50 is about 8.3-fold lower than that of the molecule before.

`CC1(C)Oc2ccc(NCc3ccccc3)cc2C(OCCc2ccccc2)C1OCc1ccccc1Cl` (stereo not shown) [Compound 5-311] returned a 50% inhibitory concentration (IC50) of 1.19 µM.

`Cc1c(C)c2c(c(C)c1O)CCC(C)(C(=O)O)O2` (stereo not shown) [Trolox, reference compound] yielded a concentration for half-maximal inhibition (IC50) of 24.6 µM.

On to `C/C=C/COC1C(OCC)c2cc(NCc3ccc(F)cc3)ccc2OC1(C)C` (stereo not shown) [Compound 5-478], for which the IC50 came out at 6.21 µM. Against the preceding molecule, the IC50 is about 4-fold lower.

`CC(C)(Sc1cc(C(C)(C)C)c(O)c(C(C)(C)C)c1)Sc1cc(C(C)(C)C)c(O)c(C(C)(C)C)c1` [Probucol, reference compound] had an IC50 of 18.2 µM.
